“And” between values parts separate entries of the source, which are not always exact repeats. Identical values can stand only once. Like-named read-outs stand apart in the source and are kept apart here.
What was measured:
CYP3A = tested on: CYP3A; parameters: method as in PMID 17965516; conditions: human liver microsomes; cited from earlier work
[1] = Relative concentration of LOX and its metabolites in hepatic portal vein plasma 10 min post-LOX (HRMS); type: in vivo, Male ICR mice; conditions: hepatic portal vein plasma 10 min after LOX 20 mg/kg oral, n = 3; for Relative concentration in plasma (DEX average % of area, VH corn oil = 100): DEX 40 mg/kg i.p. 3 days; for Relative concentration in plasma (KTC average % of area, VH 10% ethanol = 100): KTC 60 mg/kg i.p. single dose
Method: (§1) The acclimatized animals were divided into eight groups, with each group containing 3 mice: groups I and II, vehicle (corn oil); groups III and IV, DEX-treated; groups V and VI, vehicle (10% Ethanol); and groups VII and VIII, KTC-treated group. […] Then, animals were fasted for 12 hours with free access to water before starting the experiment. After fasting, LOX (20 mg/kg) was administered orally to groups I, II, III, and IV.
Similarly, blood from groups II, IV, VI, and VIII was collected from the hepatic portal vein 10 min post-LOX administration to identify metabolites of LOX and to analyze drug–drug interactions. Plasma from these samples was prepared as explained above. Then, 300 µL of ACN having 0.1% formic acid and 5 µM of the IS were mixed with 100 µL of each plasma sample. […] Supernatants were transferred into tubes and dried using a Labconco Speed Vac (Labconco Corporation, Kansas City, MO, USA). […] Each supernatant was transferred into an LCMS vial, and 5 µL were injected into a high-resolution mass spectrometer (HRMS).
HRMS coupled with ultrahigh performance liquid chromatography (UHPLC) was used to detect hydroxy-LOX and other metabolites of LOX. The UHPLC system, Dionex Ultimate 3000 (Dionex Softron GmbH, Germering, Germany) consisted of an HPG-3200SD Standard binary pump, a WPS 3000 TRS analytical autosampler, and a TCC-3000 SD column compartment. In this experiment, the HRMS was a Q Exactive Focus quadrupole-Orbitrap MS (Thermo Fisher Scientific, Bremen, Germany) equipped with a heated electrospray ionization (HESI-II) ion probe.
LOX was detected as a deprotonated ion [M-H]^− at m/z 245.1175 in negative ion mode. Therefore, negative ion mode was used with the following optimized conditions for LOX: spray voltage of 2.5 kV, capillary temperature of 320 °C, auxiliary gas at 12 aux unit, aux gas heater temperature of 200 °C, sheath gas at 35 aux units, and S-lens RF level of 50. LOX and its metabolites were separated using a 150 mm × 2.1 mm, 2.6-μm reverse-phase liquid chromatography column, Kinetex® C18 column (Phenomenex, CA, USA) at 40 °C. Furthermore, MS-grade solvents were used as the mobile phase in gradient elution mode: 0.1% aqueous formic acid as Solvent A and 0.1% formic acid in ACN as Solvent B. The flow was set to 0.22 mL/min with a gradient condition of Solvent B as 10% between 0 and 0.5 min, 10–50% between 0.5 and 21.5 min, 50–95% between 21.5 and 22.5 min, 95% between 22.5 and 25.5 min, 95–10% between 25.5 and 25.6 min, and 10% between 25.6 and 30 min.

[2] = Plasma pharmacokinetics of LOX, cis-LOX and trans-LOX after oral LOX in mice pretreated with DEX, KTC or vehicle; type: in vivo, Male ICR mice; conditions: for AUC(0-inf) / AUC(0-t) / Cmax / half-life / Tmax: male, ICR, mouse, plasma, po, 20 mg/kg, mouse plasma, LOX 20 mg/kg oral, mean ± SE, n = 3; for Cmax: read-out: Cmax; for half-life: read-out: T1/2 (elimination half-life); for Tmax: read-out: Tmax (converted)
Method: as §1, with “After fasting, LOX (20 mg/kg) was administered orally to groups I, II, III, and IV.” left out
After the oral administration of LOX, blood from groups I, III, V, and VII was collected from the tail at 0, 5, 10, 15, 30, 60, 120, and 240 min post-administration and placed into sodium heparin-containing tubes. After the last blood collection, the mice were sacrificed by cervical dislocation. Plasma was then prepared by centrifuging the blood at 4000× g for 15 min at 4 °C and stored at −80 °C until analysis. For analysis, each sample was prepared by mixing plasma (10 µL) and 90 µL of ACN containing 0.1% formic acid and 5 µM of tolbutamide as an internal standard (IS). […] Finally, 10 µL of sample supernatant was injected into the LC-MS/MS system. The PK parameters (the maximum plasma concentration [Cmax], time to reach the maximum plasma concentration [Tmax], elimination half-life [T1/2], and area under the plasma concentrations [AUC]) were analyzed by WinNonlin software (Version 2.1, Scientific Consulting, Louisville, KY, USA).
A Shimadzu Prominence UFLC system (Kyoto, Japan) connected to a TSQ vantage triple quadrupole mass spectrometer with a HESI-II spray source incorporated with a DGU-20A5 degasser, an LC-20AD pump, a SIL-20A autosampler, and a CTO-20A column oven was used for the analyses. A shim-pack GIS C18 column (150 × 3.0 mm, […]) was used to separate analytes in the samples. Mobile phases A and B were composed of water with formic acid and ACN with 0.1% formic acid, respectively, and the flow rate was 0.50 mL/min at 40 °C. The gradient conditions were as follows: 20% of B between 0 and 0.25 min, 20–80% of B between 0.25 and 9.75 min, 80–20% of B between 9.75 and 10 min, and 20% of B between 10 and 13 min. The MS was operated under the following conditions: electrospray ionization in negative mode at 3.0 kV, capillary temperature at 350 °C, vaporizer temperature at 300 °C, sheath gas pressure at 35 Arb, and auxiliary gas pressure at 10 Arb. Finally, Xcalibur software (Thermo Fisher Scientific Inc., Waltham, MA, USA) was used for data analysis.

[3] = pretreated DEX 40 mg/kg i.p. 3 days
[4] = pretreated DEX 40 mg/kg i.p. 3 days, read-out: AUC(0–60) (converted)
[5] = pretreated KTC 60 mg/kg i.p. single dose
[6] = pretreated VH (10% ethanol) i.p. single dose
[7] = pretreated VH (10% ethanol) i.p. single dose, read-out: AUC(0–60) (converted)
[8] = pretreated VH (corn oil) i.p. 3 days
[9] = pretreated VH (corn oil) i.p. 3 days, read-out: AUC(0–60) (converted)

| Compound | Relative concentration in plasma (KTC average % of area, VH 10% ethanol = 100) [1] | AUC(0-inf) [2, 3] [µg·h/mL] | AUC(0-t) [2, 4] [µg·h/mL] | Cmax [2, 3] [µg/mL] | half-life [2, 3] [min] | Tmax [2, 3] [min] | AUC(0-inf) [2, 5] [µg·h/mL] | AUC(0-t) [2, 5] [µg·h/mL] | Cmax [2, 5] [µg/mL] | half-life [2, 5] [min] | Tmax [2, 5] [min] | AUC(0-inf) [2, 6] [µg·h/mL] | AUC(0-t) [2, 7] [µg·h/mL] | Cmax [2, 6] [µg/mL] | half-life [2, 6] [min] | Tmax [2, 6] [min] | AUC(0-inf) [2, 8] [µg·h/mL] | AUC(0-t) [2, 9] [µg·h/mL] | Cmax [2, 8] [µg/mL] | half-life [2, 8] [min] | other results |
| --- | --- | --- | --- | --- | --- | --- | --- | --- | --- | --- | --- | --- | --- | --- | --- | --- | --- | --- | --- | --- | --- |
| CC(C(=O)O)c1ccc(CC2CCCC2=O)cc1 (centres unmarked) [LOX, 2-(4-((2-Oxocyclopentyl)methyl)phenyl)propanoic acid, reference compound] | 178.2% and 178.2 ± 8.3% | 0.937 | 0.892 | 2.5 ± 0.2 | 12 ± 0.7 | 5 | 1.15 | 1.11 | 3.5 ± 0.5 | 12.2 ± 0.9 | 5 | 0.985 | 0.912 | 2.7 ± 0.3 | 14.6 ± 1.1 | 5 | 1.7 | 1.6 | 4.8 ± 0.9 | 14.9 ± 0.6 | Effect on the metabolism of tacrolimus (CYP3A): slightly inhibited; Relative concentration in plasma (DEX average % of area, VH corn oil = 100) [1]: 74.1% and 74.1 ± 6.3%; Detection in plasma at later time points ([2]; blood collected for up to 240 min after LOX 20 mg/kg oral): not detected after 60 min; Tmax [2, 8]: 5 min |
| C[C@H](C(=O)O)c1ccc(C[C@H]2CCC[C@@H]2O)cc1 [trans-LOX, (2S)-2-[4-[[(1R,2S)-2-hydroxycyclopentyl]methyl]phenyl]propanoic acid] | 158.9 ± 11.9% | 1.43 | 1.13 | 2.1 ± 0.2 | 26.4 ± 1.6 | 10.4 | 1.58 | 1.34 | 3.1 ± 0.3 | 19.8 ± 0.7 | 11.7 | 1.52 | 1.17 | 2.1 ± 0.2 | 26 ± 0.5 | 11.6 | 2.58 | 2.29 | 4.4 ± 0.5 | 18.2 ± 0.6 | Relative concentration in plasma (DEX average % of area, VH corn oil = 100) ([1]; listed as M1): 80.07%; Relative concentration in plasma (KTC average % of area, VH 10% ethanol = 100) ([1]; listed as M1): 158.93%; Tmax [2, 8]: 9.1 min |

From article PMC6781309, “Assessing Drug Interaction and Pharmacokinetics of Loxoprofen in Mice Treated with CYP3A Modulators” (Pharmaceutics, 2019)
